# Measured values as given in patent US20240139229A1, “TREATMENT FOR AORTOPATHY” (UNIVERSITY OF KENTUCKY RESEARCH FOUNDATION, priority 2021, published 2024).
# Tested on: BAPN-induced aortic aneurysm and dissection
# Assay: Disulfiram in BAPN-induced aortopathy mouse model, survival
# Type: in vivo
# Settings: male C57BL/6J mice, 3 weeks old, BAPN 0.5% wt/vol in drinking water for 28 days, disulfiram 10 mg/mL in sesame oil, daily I.P. 100 μL per 20 g body weight, day -1 to 27, compared to vehicle
# Description: For the evaluation, an animal model of aortic aneurysm as described above was used to evaluate effects of disulfiram on aortic aneurysm/aortopathy. The model comprised administration of BAPN, i.e., BAPN-induced aortopathy in a mouse model. Specifics of induction of hypercholesteremia and administration of BAPN were substantially as described supra. Male C57BL/6J mice at 3 weeks old were administered beta-aminopropionitrile (BAPN, 0.5% wt/vol) in drinking water for 28 days to induce aortic aneurysm and dissection.
# The mice were separated randomly into two groups: control and treatment. For the control group, sesame oil was administered daily via intraperitoneal (I.P.) injection at 100 μL per 20 g body weight from day −1 to 27 (day −1 is the day before the first day of BAPN administration). Simultaneously, for treatment group, disulfiram at 10 mg/mL in sesame oil was administered daily via I.P. injection at 100 μL per 20 g body weight. Animal survival was monitored for 28 days during BAPN administration.
smiles,measurement,setting,value
"CCN(CC)C(=S)SSC(=S)N(CC)CC [disulfiram, tetraethyldisulfanedicarbothioamide]",Animal survival,,statistically significant increases in days of survival
same,Animal survival,listed as Disulfiram,protects against death from aortopathy
